Test systems include Escherichia coli K99; Escherichia coli K88; Escherichia coli UB1005; Escherichia coli; Enterococcus faecium; Aeromonas sobria; Vibrio splendidus; Vibrio parahaemolyticus; Vibrio alginolyticus; Candida glabrata; Candida albicans 1; Aeromonas hydrophila; Acinetobacter baumannii; Klebsiella pneumoniae; Vibrio vulnificus; Vibrio harveyi; Escherichia coli BL21.
What all share (experiment): ≥ marks a high value that may be exact or a test limit, other limits are often not marked, values filed in µg/mL are converted to µM
For assay [1], the system named is Salmonella enterica subsp. enterica serovar Typhimurium C77-31.
Assay [2] has as its system Lacticaseibacillus rhamnosus 1.0936.
The subject of assay [3] is Staphylococcus aureus ATCC 29213.
Assay [4] relates to Lactiplantibacillus plantarum 8014.
Assay [5] has as its system Staphylococcus aureus ATCC 43300.
In assay [6] the test system is Pseudomonas aeruginosa ATCC 27853.
Assay [7] relates to Salmonella enterica subsp. enterica serovar Pullorum C79-13.
Assay [8] has as its system Lacticaseibacillus rhamnosus 1.0385.
Assay [9] deals with Salmonella enterica subsp. enterica serovar Typhimurium ATCC 14028.
The subject of assay [10] is Escherichia coli ATCC 25922.
In assay [11] the test system is Lacticaseibacillus rhamnosus 7469.
Assay [12] concerns Staphylococcus aureus ATCC 25923.
Assay [13] concerns Lacticaseibacillus rhamnosus 1.0911.
Assay [14] concerns Staphylococcus aureus ATCC BAA-1683.
The test system of assay [15] is Candida albicans FRR 5580.
Assay [16] concerns Pseudomonas aeruginosa ATCC 9027.
For assay [17], the system named is Enterococcus faecalis ATCC 29212.
For assay [18], the system named is Staphylococcus aureus CMCC 26003.
The subject of assay [19] is Candida albicans CMCC 98001.
For assay [20], the system named is Escherichia coli CMCC 44102.
Assay [21] concerns Clostridium perfringens ATCC 13124.
Assay [22] deals with Bacillus cereus CMCC 63301.
The subject of assay [23] is Staphylococcus epidermidis.
The test system of assay [24] is Shigella flexneri ATCC 12022.
The subject of assay [25] is Pseudomonas aeruginosa CMCC 10104.
Assay [26] deals with Bacillus subtilis CMCC 63501.
Assay [27] has as its system Streptococcus pyogenes M1T1 5448.
The test system of assay [28] is Pseudomonas aeruginosa PAO1.

In brackets after ≈: the same amount, converted by molar mass. Some results are limits rather than exact numbers.

In general, MIC refers to the lowest concentration that inhibits growth of the organism. Turning to `C[C@H](NC(=O)[C@H](C)NC(=O)[C@H](Cc1c[nH]c2ccccc12)NC(=O)[C@H](Cc1c[nH]c2ccccc12)NC(=O)[C@H](Cc1c[nH]c2ccccc12)NC(=O)[C@H](CCCN=C(N)N)NC(=O)[C@@H]1CSSC[C@H](N)C(=O)N[C@@H](C)C(=O)N[C@@H](CO)C(=O)N[C@@H](Cc2ccc(O)cc2)C(=O)N[C@@H](Cc2ccccc2)C(=O)N1)C(N)=O` [CASYFCRWWWAA], the MIC in assay [1] was ≥ 64 µM; against Escherichia coli K99 it was ≥ 64 µM; in assay [2], ≥ 64 µM; in [3], > 64 µM; in [4], ≥ 64 µM; against Escherichia coli K88, ≥ 64 µM. The MIC in assay [5] was > 64 µM; in assay [6] it was > 64 µM; in assay [7], ≥ 64 µM; in [8] it was ≥ 64 µM; in [9] it was > 64 µM; in the assay on Escherichia coli UB1005 it was ≥ 64 µM. Also, the MIC in [10] was > 64 µM; in assay [11] it was ≥ 64 µM; in [12], > 64 µM; in assay [13] it was ≥ 64 µM.

For `CC(C)C[C@H](NC(=O)[C@H](CC(C)C)NC(=O)[C@H](CCCCN)NC(=O)[C@H](Cc1c[nH]c2ccccc12)NC(=O)[C@H](Cc1c[nH]c2ccccc12)NC(=O)[C@@H](N)CCCCN)C(=O)N[C@@H](CCCN=C(N)N)C(=O)N[C@@H](CCCCN)C(=O)N[C@@H](CCCCN)C(=O)N[C@@H](CCCN=C(N)N)C(N)=O` [KWWKLLRKKR], the MIC in assay [14] was ≥ 43.3 µM; in the assay on Escherichia coli it was 173 µM (≈ 250 µg/mL); in assay [12], 21.7 µM (≈ 31.2 µg/mL).

Take `CC(C)[C@H](NC(=O)[C@@H]1CCCN1C(=O)[C@H](Cc1ccccc1)NC(=O)[C@H](CCCCN)NC(=O)CNC(=O)[C@H](CCCCN)NC(=O)[C@H](Cc1c[nH]c2ccccc12)NC(=O)[C@H](Cc1c[nH]c2ccccc12)NC(=O)[C@H](CCCCN)NC(=O)[C@H](Cc1c[nH]c2ccccc12)NC(=O)[C@H](Cc1c[nH]c2ccccc12)NC(=O)[C@H](CCCN=C(N)N)NC(=O)[C@H](Cc1c[nH]c2ccccc12)NC(=O)[C@@H](NC(=O)[C@@H](NC(=O)[C@@H]1CCCN1C(=O)[C@@H](N)Cc1ccccc1)C(C)C)[C@@H](C)O)C(=O)N[C@H](C(=O)N[C@@H](Cc1c[nH]c2ccccc12)C(=O)N[C@@H](CCCN=C(N)N)C(=O)N[C@@H](Cc1c[nH]c2ccccc12)C(=O)N[C@@H](Cc1c[nH]c2ccccc12)C(=O)N[C@@H](CCCCN)C(=O)N[C@@H](Cc1c[nH]c2ccccc12)C(=O)N[C@@H](Cc1c[nH]c2ccccc12)C(=O)N[C@@H](CCCCN)C(=O)NCC(=O)O)[C@@H](C)O` [FPVTWRWWKWWKGKFPVTWRWWKWWKG]: the MIC is ≥ 32.6 µM in [15], 65.2 µM (≈ 250 µg/mL) in assay [10], > 65.2 µM in assay [16] and 65.2 µM (≈ 250 µg/mL) in assay [12].

Take `CC[C@H](C)[C@H](NC(=O)[C@H](CC(N)=O)NC(=O)[C@H](CS)NC(=O)CNC(=O)[C@@H](N)CCC(=O)O)C(=O)N[C@@H](CC(C)C)C(=O)N[C@@H](CS)C(=O)N[C@@H](CC(C)C)C(=O)N[C@@H](CC(C)C)C(=O)N[C@@H](CCCCN)C(=O)N[C@@H](CCCN=C(N)N)C(=O)N[C@@H](CCCCN)C(=O)N[C@H](C(=O)N[C@@H](CCCCN)C(=O)N[C@@H](C)C(=O)N[C@H](C(=O)N[C@@H](CCCCN)C(=O)N[C@@H](CC(N)=O)C(=O)N[C@H](C(=O)N[C@H](C(=O)N[C@@H](CCCCN)C(=O)N[C@@H](CC(N)=O)C(=O)N[C@H](C(=O)N[C@H](C(=O)N[C@@H](CCCCN)C(=O)N[C@@H](CO)C(=O)N[C@H](C(=O)N[C@H](C(=O)NCC(=O)O)C(C)C)C(C)C)C(C)C)C(C)C)C(C)C)C(C)C)C(C)C)C(C)C` [EGCNILCLLKRKVKAVKNVVKNVVKSVVG]: the MIC was 31.9 µM (≈ 100 µg/mL) in the assay with Enterococcus faecium; 31.9 µM (≈ 100 µg/mL) against Aeromonas sobria; 23.9 µM (≈ 75 µg/mL) with Vibrio splendidus; > 31.9 µM in [17]; 2.99 µM (≈ 9.38 µg/mL) with Vibrio parahaemolyticus; 31.9 µM (≈ 100 µg/mL) in the assay with Vibrio alginolyticus. For the same compound, the MIC was 2.99 µM (≈ 9.38 µg/mL) in [18]; 31.9 µM (≈ 100 µg/mL) in [19]; 5.97 µM (≈ 18.8 µg/mL) in [20]; 31.9 µM (≈ 100 µg/mL) in the assay on Candida glabrata; 11.9 µM (≈ 37.5 µg/mL) in assay [21]; 31.9 µM (≈ 100 µg/mL) against Candida albicans 1. Besides, the MIC with Aeromonas hydrophila is 11.9 µM (≈ 37.5 µg/mL); in [22], 31.9 µM (≈ 100 µg/mL); in [23], 31.9 µM (≈ 100 µg/mL); in the assay with Acinetobacter baumannii, 31.9 µM (≈ 100 µg/mL); in the assay on Klebsiella pneumoniae, > 31.9 µM; in [24], 5.97 µM (≈ 18.8 µg/mL). The MIC turned out to be 31.9 µM (≈ 100 µg/mL) in the assay with Vibrio vulnificus; 23.9 µM (≈ 75 µg/mL) with Vibrio harveyi; 31.9 µM (≈ 100 µg/mL) in assay [25]; 2.99 µM (≈ 9.38 µg/mL) in assay [10]; 11.9 µM (≈ 37.5 µg/mL) in assay [26].

As to `CC[C@H](C)[C@H](NC(=O)[C@H](CCCN=C(N)N)NC(=O)[C@H](CC(N)=O)NC(=O)[C@@H](NC(=O)CNC(=O)[C@H](C)N)[C@@H](C)O)C(=O)N[C@@H](C)C(=O)N[C@@H](CCCCN)C(=O)N[C@@H](CCC(=O)O)C(=O)N[C@@H](CC(C)C)C(=O)N[C@@H](CCCN=C(N)N)C(=O)N[C@@H](CCCN=C(N)N)C(=O)N[C@@H](Cc1ccc(O)cc1)C(=O)N[C@H](C(=O)N[C@@H](CCCN=C(N)N)C(=O)N[C@@H](CCCCN)C(=O)N[C@H](C(=O)NCC(=O)N[C@@H](CCCN=C(N)N)C(=O)N[C@H](C(=O)N[C@@H](CCCCN)C(=O)N[C@@H](CCCN=C(N)N)C(=O)N[C@@H](CCCCN)C(=O)N[C@@H](C)C(=O)N[C@@H](Cc1c[nH]c2ccccc12)C(=O)O)[C@@H](C)CC)C(C)C)[C@@H](C)CC` [AGTNRIAKELRRYIRKVGRIKRKAW], the MIC in [27] worked out at 2 µM (≈ 6.08 µg/mL); in assay [28], 16 µM (≈ 48.7 µg/mL); with Escherichia coli BL21, 0.25 µM (≈ 0.76 µg/mL).

(Values after DBAASP.)
